The record followed here is ChEMBL document CHEMBL3991601, “The target landscape of clinical kinase drugs” (Science, 2017).

The structures appear in SMILES notation. Activity calls are given as the source filed them. For most assays here, no stated cut-off is given here; in the data, actives have a measured Kd and inactives only a lower limit.

Assay [1] addresses BMP-2-inducible protein kinase (Homo sapiens, UniProt Q9NSY1).
In assay [2] the target is Bone morphogenetic protein receptor type-1A (Homo sapiens, UniProt P36894).
The target of assay [3] is Bone morphogenetic protein receptor type-1B (Homo sapiens, UniProt O00238).
The target in assay [4] is Serine/threonine-protein kinase MRCK gamma (Homo sapiens, UniProt Q6DT37).
Assay [5] has as its target Cyclin-dependent kinase 13 (Homo sapiens, UniProt Q14004).
The target of assay [6] is T1, Serine/threonine-protein kinase Chk1 (Homo sapiens, UniProt O14757).
T1 sequence (O14757 whole entry): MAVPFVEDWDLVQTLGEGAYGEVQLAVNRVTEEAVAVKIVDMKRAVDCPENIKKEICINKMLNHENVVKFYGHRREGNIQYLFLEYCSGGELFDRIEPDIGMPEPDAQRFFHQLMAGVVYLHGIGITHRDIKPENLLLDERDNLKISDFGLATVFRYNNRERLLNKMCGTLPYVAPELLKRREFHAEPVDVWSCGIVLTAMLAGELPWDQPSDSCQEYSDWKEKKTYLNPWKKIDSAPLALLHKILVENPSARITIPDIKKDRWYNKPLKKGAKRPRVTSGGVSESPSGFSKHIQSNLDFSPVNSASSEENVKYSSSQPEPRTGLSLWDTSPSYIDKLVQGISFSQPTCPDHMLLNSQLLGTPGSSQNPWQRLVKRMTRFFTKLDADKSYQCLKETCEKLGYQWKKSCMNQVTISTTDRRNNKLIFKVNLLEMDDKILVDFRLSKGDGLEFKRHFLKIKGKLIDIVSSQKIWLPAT

Assay [7] deals with Tyrosine-protein kinase CSK (Homo sapiens, UniProt P41240).
Assay [8] addresses T2, Ephrin type-B receptor 2 (Homo sapiens, UniProt P29323).
T2 sequence (P29323 whole entry): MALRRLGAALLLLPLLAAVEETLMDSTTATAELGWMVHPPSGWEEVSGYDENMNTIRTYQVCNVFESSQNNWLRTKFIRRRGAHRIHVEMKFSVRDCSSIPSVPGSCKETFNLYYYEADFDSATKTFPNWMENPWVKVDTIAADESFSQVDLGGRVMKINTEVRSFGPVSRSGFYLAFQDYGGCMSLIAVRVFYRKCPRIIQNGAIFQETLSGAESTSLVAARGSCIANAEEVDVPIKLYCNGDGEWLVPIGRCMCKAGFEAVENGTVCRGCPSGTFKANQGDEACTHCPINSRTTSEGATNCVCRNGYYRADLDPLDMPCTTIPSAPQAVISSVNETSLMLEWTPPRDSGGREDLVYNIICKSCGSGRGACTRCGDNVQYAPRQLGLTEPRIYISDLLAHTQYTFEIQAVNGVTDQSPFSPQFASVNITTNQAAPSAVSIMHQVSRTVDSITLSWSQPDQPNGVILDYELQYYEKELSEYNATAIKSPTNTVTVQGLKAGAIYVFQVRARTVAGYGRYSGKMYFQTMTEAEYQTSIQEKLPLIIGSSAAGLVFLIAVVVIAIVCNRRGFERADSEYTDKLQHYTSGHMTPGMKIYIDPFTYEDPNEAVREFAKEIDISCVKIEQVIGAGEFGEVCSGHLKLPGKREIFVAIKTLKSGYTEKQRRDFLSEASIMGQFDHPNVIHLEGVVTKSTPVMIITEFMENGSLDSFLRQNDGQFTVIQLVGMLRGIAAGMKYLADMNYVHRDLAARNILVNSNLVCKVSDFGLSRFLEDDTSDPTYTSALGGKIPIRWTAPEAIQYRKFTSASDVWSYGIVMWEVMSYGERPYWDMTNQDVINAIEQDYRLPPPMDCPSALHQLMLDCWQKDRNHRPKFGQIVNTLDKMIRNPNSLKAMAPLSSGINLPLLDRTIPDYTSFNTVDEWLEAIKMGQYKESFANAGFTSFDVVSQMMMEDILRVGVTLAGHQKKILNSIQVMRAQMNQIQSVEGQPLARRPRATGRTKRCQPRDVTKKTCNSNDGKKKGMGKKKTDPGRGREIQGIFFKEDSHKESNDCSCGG

Assay [9] deals with Tyrosine-protein kinase Fyn (Homo sapiens, UniProt P06241).
Assay [10] concerns the target Dual specificity mitogen-activated protein kinase kinase 2 (Homo sapiens, UniProt P36507).
For assay [11], the target named is Mitogen-activated protein kinase 11 (Homo sapiens, UniProt Q15759).
For assay [12], the target named is cAMP-dependent protein kinase catalytic subunit beta (Homo sapiens, UniProt P22694).
The target of assay [13] is cAMP-dependent protein kinase type II-alpha regulatory subunit (Homo sapiens, UniProt P13861).
The target of assay [14] is Protein kinase C delta type (Homo sapiens, UniProt Q05655).
The target of assay [15] is GTP-binding nuclear protein Ran (Homo sapiens, UniProt P62826).
The target in assay [16] is Receptor-interacting serine/threonine-protein kinase 2 (Homo sapiens, UniProt O43353).
For assay [17], the target named is T3, STE20-related kinase adapter protein alpha (Homo sapiens, UniProt Q7RTN6).
T3 sequence (Q7RTN6 whole entry): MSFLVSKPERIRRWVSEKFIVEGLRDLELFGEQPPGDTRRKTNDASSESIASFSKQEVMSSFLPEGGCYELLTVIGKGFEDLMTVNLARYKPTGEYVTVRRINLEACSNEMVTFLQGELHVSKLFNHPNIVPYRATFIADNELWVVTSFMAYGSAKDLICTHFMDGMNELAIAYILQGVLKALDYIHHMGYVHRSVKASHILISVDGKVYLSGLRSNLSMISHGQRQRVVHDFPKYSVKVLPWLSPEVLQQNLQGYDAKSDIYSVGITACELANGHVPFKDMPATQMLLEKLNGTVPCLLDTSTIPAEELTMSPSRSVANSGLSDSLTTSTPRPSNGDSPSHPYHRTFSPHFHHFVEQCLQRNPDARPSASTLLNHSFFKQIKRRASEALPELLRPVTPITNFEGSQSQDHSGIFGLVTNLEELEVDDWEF

The target in assay [18] is Non-receptor tyrosine-protein kinase TYK2 (Homo sapiens, UniProt P29597).
Assay [19] addresses Ephrin type-A receptor 7 (Homo sapiens, UniProt Q15375).

Chain of Serine/threonine-protein kinase MRCK gamma (Q6DT37 whole entry): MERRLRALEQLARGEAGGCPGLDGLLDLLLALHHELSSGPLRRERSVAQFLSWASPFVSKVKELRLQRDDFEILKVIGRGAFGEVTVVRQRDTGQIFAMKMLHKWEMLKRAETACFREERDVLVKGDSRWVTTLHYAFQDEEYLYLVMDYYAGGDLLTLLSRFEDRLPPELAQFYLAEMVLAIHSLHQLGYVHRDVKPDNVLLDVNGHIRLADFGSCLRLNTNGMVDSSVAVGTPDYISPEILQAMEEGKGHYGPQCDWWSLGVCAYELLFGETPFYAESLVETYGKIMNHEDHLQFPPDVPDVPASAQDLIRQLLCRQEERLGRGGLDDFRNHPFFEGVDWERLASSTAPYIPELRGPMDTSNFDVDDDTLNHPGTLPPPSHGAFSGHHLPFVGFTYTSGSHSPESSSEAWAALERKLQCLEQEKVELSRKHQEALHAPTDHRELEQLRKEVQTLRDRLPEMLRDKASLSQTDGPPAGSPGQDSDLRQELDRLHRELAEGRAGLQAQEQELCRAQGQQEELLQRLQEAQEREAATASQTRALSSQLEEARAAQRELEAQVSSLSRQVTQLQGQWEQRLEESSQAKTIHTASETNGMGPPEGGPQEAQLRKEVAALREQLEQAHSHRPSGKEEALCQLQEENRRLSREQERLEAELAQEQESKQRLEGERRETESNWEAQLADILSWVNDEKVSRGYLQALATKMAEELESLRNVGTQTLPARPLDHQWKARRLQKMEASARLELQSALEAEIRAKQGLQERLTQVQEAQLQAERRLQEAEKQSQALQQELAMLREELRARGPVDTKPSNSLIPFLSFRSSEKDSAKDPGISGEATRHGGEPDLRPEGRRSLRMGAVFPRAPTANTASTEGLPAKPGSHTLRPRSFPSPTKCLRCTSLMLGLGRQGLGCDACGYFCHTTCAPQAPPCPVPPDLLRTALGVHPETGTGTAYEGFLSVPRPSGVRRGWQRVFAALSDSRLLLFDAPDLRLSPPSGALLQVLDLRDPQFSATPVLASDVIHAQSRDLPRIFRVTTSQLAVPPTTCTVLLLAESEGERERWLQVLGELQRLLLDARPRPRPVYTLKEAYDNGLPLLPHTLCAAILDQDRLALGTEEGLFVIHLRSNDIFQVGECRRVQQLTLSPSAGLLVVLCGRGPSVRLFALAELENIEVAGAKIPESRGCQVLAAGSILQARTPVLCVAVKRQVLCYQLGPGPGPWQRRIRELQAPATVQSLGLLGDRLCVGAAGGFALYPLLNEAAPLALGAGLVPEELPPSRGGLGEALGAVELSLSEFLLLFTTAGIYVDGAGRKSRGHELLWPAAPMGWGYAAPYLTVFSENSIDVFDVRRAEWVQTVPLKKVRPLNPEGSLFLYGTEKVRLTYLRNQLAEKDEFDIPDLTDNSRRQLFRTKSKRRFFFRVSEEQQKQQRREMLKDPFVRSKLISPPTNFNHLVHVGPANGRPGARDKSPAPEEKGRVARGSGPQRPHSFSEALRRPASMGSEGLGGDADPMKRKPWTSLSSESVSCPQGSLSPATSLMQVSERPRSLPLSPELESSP
Chain of cAMP-dependent protein kinase type II-alpha regulatory subunit (P13861 whole entry): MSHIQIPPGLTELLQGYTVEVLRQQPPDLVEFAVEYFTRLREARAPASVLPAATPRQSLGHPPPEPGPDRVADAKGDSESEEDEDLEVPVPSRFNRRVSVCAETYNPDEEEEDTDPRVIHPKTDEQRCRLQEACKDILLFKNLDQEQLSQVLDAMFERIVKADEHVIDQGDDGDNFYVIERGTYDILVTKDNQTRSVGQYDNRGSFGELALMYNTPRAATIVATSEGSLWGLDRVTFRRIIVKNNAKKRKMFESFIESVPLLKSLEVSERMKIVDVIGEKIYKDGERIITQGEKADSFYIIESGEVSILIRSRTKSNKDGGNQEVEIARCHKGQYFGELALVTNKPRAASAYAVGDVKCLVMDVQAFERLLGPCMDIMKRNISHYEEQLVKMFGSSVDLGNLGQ
Chain of Mitogen-activated protein kinase 11 (Q15759 whole entry): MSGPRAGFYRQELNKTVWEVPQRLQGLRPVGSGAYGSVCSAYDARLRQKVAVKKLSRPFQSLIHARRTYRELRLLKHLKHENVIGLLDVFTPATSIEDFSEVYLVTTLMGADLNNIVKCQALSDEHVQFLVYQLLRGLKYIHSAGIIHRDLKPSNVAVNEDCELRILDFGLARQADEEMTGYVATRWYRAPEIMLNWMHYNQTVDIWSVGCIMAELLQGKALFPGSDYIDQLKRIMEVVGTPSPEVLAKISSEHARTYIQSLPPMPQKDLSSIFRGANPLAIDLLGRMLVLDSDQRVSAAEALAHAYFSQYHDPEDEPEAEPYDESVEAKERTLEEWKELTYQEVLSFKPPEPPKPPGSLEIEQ
Chain of Tyrosine-protein kinase CSK (P41240 whole entry): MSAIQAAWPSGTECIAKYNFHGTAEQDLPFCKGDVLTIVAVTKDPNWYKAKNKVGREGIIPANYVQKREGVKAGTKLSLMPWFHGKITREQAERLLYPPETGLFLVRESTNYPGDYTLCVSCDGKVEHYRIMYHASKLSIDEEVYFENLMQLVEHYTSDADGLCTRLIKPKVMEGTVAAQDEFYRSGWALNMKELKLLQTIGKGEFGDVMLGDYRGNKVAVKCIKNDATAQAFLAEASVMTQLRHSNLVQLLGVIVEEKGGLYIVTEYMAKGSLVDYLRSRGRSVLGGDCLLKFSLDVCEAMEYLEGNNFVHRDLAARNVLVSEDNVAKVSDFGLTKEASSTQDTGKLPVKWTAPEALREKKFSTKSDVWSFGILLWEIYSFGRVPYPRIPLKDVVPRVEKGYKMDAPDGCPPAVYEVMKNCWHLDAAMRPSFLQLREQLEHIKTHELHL
Chain of Receptor-interacting serine/threonine-protein kinase 2 (O43353 whole entry): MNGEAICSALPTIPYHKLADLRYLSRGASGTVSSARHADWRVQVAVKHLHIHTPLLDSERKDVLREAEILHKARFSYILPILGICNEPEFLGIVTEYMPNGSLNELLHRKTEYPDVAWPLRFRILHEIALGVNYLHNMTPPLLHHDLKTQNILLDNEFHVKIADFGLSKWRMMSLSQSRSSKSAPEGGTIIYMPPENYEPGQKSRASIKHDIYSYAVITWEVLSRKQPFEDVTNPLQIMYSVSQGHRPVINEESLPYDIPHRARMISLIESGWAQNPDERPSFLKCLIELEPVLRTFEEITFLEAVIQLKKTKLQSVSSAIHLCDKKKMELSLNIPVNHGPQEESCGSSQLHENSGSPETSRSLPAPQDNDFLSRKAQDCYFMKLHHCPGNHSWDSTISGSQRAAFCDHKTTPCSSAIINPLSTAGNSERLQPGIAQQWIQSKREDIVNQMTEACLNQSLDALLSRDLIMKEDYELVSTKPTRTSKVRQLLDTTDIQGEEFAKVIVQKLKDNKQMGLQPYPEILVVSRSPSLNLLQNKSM
Chain of Tyrosine-protein kinase Fyn (P06241 whole entry): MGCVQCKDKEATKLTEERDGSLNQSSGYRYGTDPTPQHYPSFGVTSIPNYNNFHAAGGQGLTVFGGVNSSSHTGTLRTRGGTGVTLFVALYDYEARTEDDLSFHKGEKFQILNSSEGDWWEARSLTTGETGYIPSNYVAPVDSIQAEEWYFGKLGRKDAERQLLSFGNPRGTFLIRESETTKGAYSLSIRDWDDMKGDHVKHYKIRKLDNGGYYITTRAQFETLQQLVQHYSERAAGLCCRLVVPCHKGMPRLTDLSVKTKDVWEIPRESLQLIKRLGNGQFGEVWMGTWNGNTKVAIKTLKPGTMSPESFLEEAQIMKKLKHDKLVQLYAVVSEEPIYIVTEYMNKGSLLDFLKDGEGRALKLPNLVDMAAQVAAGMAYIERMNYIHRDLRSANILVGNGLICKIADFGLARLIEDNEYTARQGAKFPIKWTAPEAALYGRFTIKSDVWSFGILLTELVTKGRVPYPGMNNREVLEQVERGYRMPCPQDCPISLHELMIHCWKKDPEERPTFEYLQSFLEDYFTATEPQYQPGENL
Chain of Bone morphogenetic protein receptor type-1B (O00238 whole entry): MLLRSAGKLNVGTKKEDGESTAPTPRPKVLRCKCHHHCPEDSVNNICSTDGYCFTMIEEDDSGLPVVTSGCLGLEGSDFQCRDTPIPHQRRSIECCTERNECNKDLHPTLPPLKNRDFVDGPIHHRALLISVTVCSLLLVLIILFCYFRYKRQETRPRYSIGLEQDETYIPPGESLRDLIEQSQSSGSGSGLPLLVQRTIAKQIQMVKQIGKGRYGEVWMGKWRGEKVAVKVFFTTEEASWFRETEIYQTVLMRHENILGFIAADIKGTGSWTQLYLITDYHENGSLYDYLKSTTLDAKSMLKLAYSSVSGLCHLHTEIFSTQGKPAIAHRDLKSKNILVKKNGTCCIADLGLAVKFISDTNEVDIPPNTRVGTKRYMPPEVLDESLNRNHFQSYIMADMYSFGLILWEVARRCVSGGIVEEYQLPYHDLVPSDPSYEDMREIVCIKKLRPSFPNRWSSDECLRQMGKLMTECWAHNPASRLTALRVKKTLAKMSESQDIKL
Chain of Dual specificity mitogen-activated protein kinase kinase 2 (P36507 whole entry): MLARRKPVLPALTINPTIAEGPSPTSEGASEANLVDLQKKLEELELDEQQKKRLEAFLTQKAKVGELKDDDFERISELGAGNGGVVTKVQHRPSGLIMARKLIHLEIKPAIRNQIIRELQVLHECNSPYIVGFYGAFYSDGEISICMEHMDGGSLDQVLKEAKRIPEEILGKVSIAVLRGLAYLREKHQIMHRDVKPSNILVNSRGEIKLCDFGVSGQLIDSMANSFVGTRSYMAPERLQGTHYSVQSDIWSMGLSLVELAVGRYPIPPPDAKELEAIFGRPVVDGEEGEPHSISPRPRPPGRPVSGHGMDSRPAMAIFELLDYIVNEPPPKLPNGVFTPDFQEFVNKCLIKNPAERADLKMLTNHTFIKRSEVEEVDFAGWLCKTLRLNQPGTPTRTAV

For `COc1ccc(-c2ccc3ncc4c(c3c2)n(-c2ccc(N3CCNCC3)c(C(F)(F)F)c2)c(=O)n4C)cn1` [BGT-226 FREE BASE], the Kd in assay [1], in [2], in [3], in [4], in [5] and in assay [6] was > 30 µM (inactive) in each case. Also, the Kd in assay [7], in assay [8], in assay [9], in [10], in [11] and in assay [12] was > 30 µM (inactive) in each case. In addition, the Kd in assay [13], in [14], in assay [15], in assay [16], in assay [17] and in assay [18] was > 30 µM (inactive) each time.

Regarding `N#CCNC(=O)c1ccc(-c2ccnc(Nc3ccc(N4CCOCC4)cc3)n2)cc1` [MOMELOTINIB], the Kd in assay [2], in [3], in assay [4], in [5], in [6] and in assay [7] was > 30 µM (inactive) throughout. Besides, the Kd in assay [19], in assay [8], in assay [9], in assay [12], in assay [13] and in assay [14] was > 30 µM (inactive) in each case. In addition, the Kd in assay [15] and in assay [16] was > 30 µM (inactive) each time.

`CCN1CCN(Cc2ccc(Nc3ncc(F)c(-c4cc(F)c5nc(C)n(C(C)C)c5c4)n3)nc2)CC1` [ABEMACICLIB]: the dissociation constant Kd is 56 µM (active) in assay [1]; > 30 µM (inactive) in [2]; > 30 µM (inactive) in [3]; > 30 µM (inactive) in assay [4]; > 30 µM (inactive) in assay [5]; > 30 µM (inactive) in [6]. Also, the Kd in assay [7], in assay [8], in assay [9], in assay [10], in [11] and in assay [12] was > 30 µM (inactive) throughout. The Kd in assay [13] is > 30 µM (inactive); in assay [14] it was 0.795 µM (active); in assay [15] it was > 30 µM (inactive); in assay [16], > 30 µM (inactive); in assay [17], > 30 µM (inactive); in assay [18], > 30 µM (inactive).

Take `CC(C)(O)CC(=O)NCCn1ccc2ncnc(Nc3ccc(Oc4cccc(C(F)(F)F)c4)c(Cl)c3)c21` [TAK-285]: the Kd in assay [1] was > 30 µM (inactive); in assay [2], > 30 µM (inactive); in assay [3] it was 1.63 µM; in assay [4], > 30 µM (inactive); in assay [5] it was > 30 µM (inactive); in [6] it was > 30 µM (inactive). The Kd in [7], in assay [19], in assay [8], in assay [9], in assay [11] and in [12] was > 30 µM (inactive) each time. Moreover, the Kd in assay [13], in assay [14], in assay [15], in [17] and in assay [18] was > 30 µM (inactive) throughout.

Consider `C=CCN(/C=C1/C(=O)O[C@H](COC)[C@@]2(C)C1=C(O)C(=O)C1=C2[C@H](OC(C)=O)C[C@]2(C)C(=O)CC[C@@H]12)CC=C` [SONOLISIB], for which the Kd in assay [1], in assay [2], in assay [3], in assay [5], in assay [6] and in [7] was > 30 µM (inactive) each time. The Kd in assay [8], in assay [9], in assay [10], in assay [11], in [12] and in assay [13] was > 30 µM (inactive) throughout. For the same compound, the Kd in assay [14], in [15], in [16], in assay [17] and in [18] was > 30 µM (inactive) throughout.

For `O=C(NC[C@H](O)CO)c1ccncc1Nc1ccc(I)cc1F` [PIMASERTIB], the Kd in assay [1], in assay [2], in [3], in assay [4], in assay [5] and in [6] was > 30 µM (inactive) each time. Besides, the Kd is > 30 µM (inactive) in assay [7]; > 30 µM (inactive) in [8]; > 30 µM (inactive) in [9]; 0.038 µM (active) in assay [10]; > 30 µM (inactive) in assay [11]; > 30 µM (inactive) in assay [12]. Also, the Kd in [13], in assay [14], in assay [15], in [16], in [17] and in [18] was > 30 µM (inactive) in each case.

Broadly, the Kd is the concentration at which binding is half-saturated.
